Entries after “also recorded” stand apart in the source; their conditions may differ.

One data set relates to aged C57Bl/6 mice. The data set is described as follows: Barnes maze test in aged mice. The format is in vivo. From the text:
A modified Barnes maze was used to assess spatial working/episodic like learning and memory. The Barnes maze apparatus consists of a 122 cm diameter circular platform with 40 escape holes, each with a diameter of 5 cm placed along three rings of varying distances from the center of the platform. An escape box is attached to one of the holes and all holes are left uncovered. Bright lights and a fan are trained on the maze to provide adverse stimuli to encourage escape. Visual cues are placed on all four sides of the maze. Mice are given a series of 4 or 5 trials with inter-trial intervals of approximately 10 min, and the maximum duration of each trial is 90 or 120 sec. For each trial, mice are placed in the center of the maze. After 10 seconds, mice are allowed to explore, and the trial is ended if the mouse has found and entered an escape box before the end of the trial. Mice that cannot find the escape box are led to it and allowed to enter and given 30 sec to remain before being returned to its home cage. Training is done for 4 days. Data that is recorded and analyzed include velocity, escape latency, and distance moved.
Mice are divided into groups of 4-5 mice each, with balanced treatment groups. For example, Group 1 mice are run for 4 trials, then Group 2 mice are run for 4 trials, and so on until all groups finish testing. 70% ethanol is used to clean the arenas between trials.
Three-month-old or 16.5-month-old C57Bl/6 mice were dosed with either vehicle control or Compound 1 subcutaneously by Alzet osmotic pump for 4 weeks. During the last week of treatment, mice were subjected to behavior testing prior to perfusion on the last day of treatment. All mice received 5 consecutive days of BrdU injection at 150 mg/kg IP immediately prior to treatment start.
23-month-old C57Bl/6 mice were dosed with either vehicle control or Compound 1 subcutaneously twice daily for 21 days. Three weeks later, mice were subjected to behavior testing, and sacrificed the day following the last behavior test.

The subject of data set [1] is three-month-old C57 mice treated with LPS. The data set is described as follows: Open Field test (anxiety) in mice given daily LPS. The format is in vivo. The following applies: 3-month-old mice; daily LPS 0.5 mg/kg IP; 30 mg/kg PO BID, after 1 week. The protocol:
(§1) Open Field is used to evaluate general locomotor activity and exploratory behavior in a novel environment. Mice are brought to the experimental room for at least 30 min for acclimation to the experimental room conditions (dim lighting) prior to testing. The testing arena consists of a 50 cm×50 cm square arena. Mice are placed in the center of an arena and tracked for 15 minutes. Time spent in the peripheral and centers zones is analyzed, along with rearing behavior. 70% ethanol is used to clean all surfaces between trials.
Three-month-old C57 mice were given daily doses of lipopolysaccharide (LPS) 0.5 mg/kg IP to induce inflammation and treated with Compound 1 for up to 4 weeks.
Treatment Groups: • Treatment Group 1, Vehicle treatment: 3-month-old C57 mice (n=10) received daily IP injection of LPS for 7 weeks and twice daily (BID) oral gavage (PO) treatment of vehicle solution for up to 4 weeks. • Treatment Group 2, Vehicle treatment and Oxazolone treatment: 3-month-old C57 mice (n=10) received daily IP injection of LPS for 7 weeks and twice daily (BID) oral gavage (PO) treatment of vehicle solution for up to 4 weeks. • Treatment Group 3, Compound 1 treatment and Oxazolone treatment: 3-month-old C57 mice (n=9) received daily IP injection of LPS for 7 weeks and twice daily (BID) oral gavage (PO) treatment of Compound 1, 30 mg/kg, for up to 4 weeks.

Data set [2] can be described thus: Compound cerebrospinal fluid levels in mice (mass spectroscopy). The following applies: for concentration at 4 weeks: C57BL/6, mouse, cerebrospinal fluid, subcutaneous, 16.5-month-old old group, read-out: level of Compound 1 in CSF. The format is in vivo, C57BL/6 mice. The protocol:
(§2) Compound levels were measured by MS/MS by Quintara (Hayward, Calif.).
Cerebrospinal fluid (CSF) from both the 2-month-old “young” and 16.5-month-old “old” groups was collected and levels of Compound 1 were determined by mass spectroscopy. FIG. 6 depicts the levels of the compound of the invention that were detected in mouse CSF for both the young and old groups (both below 10 nM).

The nature of data set [3]: Compound plasma levels in mice under Alzet pump infusion. The format is in vivo, C57BL/6 mice. The following applies: C57BL/6, mouse, other: Alzet pump infusion (perfused), 25 µg/hr, mean±s.e.m., read-out: level of the compound in plasma. The protocol: as §2
FIG. 6 depicts the levels of the compound of the invention that were detected in mouse CSF for both the young and old groups (both below 10 nM).

In data set [4] the test system is two-month-old C57Bl/6 mice treated with rmCCL11. Briefly: Open Field test in young mice given recombinant mouse CCL11. In kind it is in vivo. The following applies: 2-month-old mice; rmCCL11 i.p.; Compound 1 30 mg/kg p.o. b.i.d., 2 weeks. The protocol:
as §1
[…] During the last week of treatment, mice were subjected to behavior testing prior to perfusion on the last day of treatment. All mice received 5 consecutive days of BrdU injection at 150 mg/kg IP immediately prior to treatment start. […]

Where [5] appears, read: 16.5-month-old mice, 4-week dosing by pump.
The mark [6] stands for this setting: 23-month-old mice, 30 mg/kg SQ BID 21 days, tested three weeks later.

In the case of `Cc1cc(C(=O)N(C)C)cc(NC(=O)[C@H]2CCC(=O)N2C2CCN(Cc3ccc(Cl)c(C)c3)CC2)n1` [Compound 1], in the data set with aged C57Bl/6 mice (setting [5]), the “Barnes maze average of the latency for day 4 trials” value is reported as “Trends for improved memory”; the “Barnes maze difference between the latencies of trials 13 and 16” value was “Trends for improved memory”; the “performance in the Barnes maze” value is “trended towards improved performance”. Also, in the data set on aged C57Bl/6 mice (setting [6]), the “Barnes Maze spatial memory performance” value is “performed significantly better” and the “velocity during the Barnes Maze test” value is “exhibited increased velocity”. For the same molecule, the “anxiety in the Open Field” value in data set [1] is listed as “strongly decreased the increased anxiety; also recorded: decreased the LPS-induced anxiety”. Moreover, the concentration at 4 weeks in data set [2] (50 mg/mL solution infused at 0.5 μL/hour by Alzet mini-pump, mass spectroscopy) is below 10 nM. Also, the concentration at 4 weeks in data set [2] (mass spectroscopy) was below 10 nM. Besides, the “difference in BBB penetration between young and old mice” value in data set [2] (mouse, in vivo) was “no difference in BBB penetration between young and old mice”. The “crossing of the blood-brain barrier (CSF levels versus Ki)” value in data set [2] (young and old mice) is reported as “do not cross the blood-brain barrier (BBB) in significant concentrations”. Further, the “level of Compound 1 in CSF” value in data set [2] (young group, mass spectroscopy) is “below 10 nM”. In addition, in data set [3] (old (18-month) mice perfused 4 weeks at 0.5 μL/hr of 50 mg/mL solution), the concentration at 4 weeks is 355 ± 43 nM. In addition, the concentration at 2 weeks in data set [3] (young (2-month-old) mice perfused 2 weeks at 0.5 μL/hr of 50 mg/mL solution) is 352 ± 31 nM. In data set [4], the “anxiety in the Open Field” value is “improved anxiety”.

These data come from patent publication US11382907B2, “Methods and compositions for treating aging-associated impairments using CCR3-inhibitors” (Alkahest, Inc., priority 2017, dated 2022).
